Data on six compounds can be found in patent US8722877B2, “7-deazapurine modulators of histone methyltransferase, and methods of use thereof” (Epizyme, Inc., priority 2010, dated 2014).

One data set has as its target DOT1L(1-416) (Homo sapiens (Human), UniProt Q8TEK3). The data set can be described thus: Determination of IC50, DOT1L biochemical assay.
A further data set concerns MOLM-13 cells. The data set is described as follows: Cell growth and viability / proliferation, MOLM-13 cells. The data set is classed as cell-based, human.
Data set [1] concerns H3K79 methylation in MOLM-13 cells. The data set is described as follows: Cellular H3K79 methylation analysis (histone immunoblot) in MOLM-13 cells. The data set is classed as cell-based, human. (In western blotting, separated proteins are transferred to a membrane and probed.)
The subject of another data set is MEIS1. The data set can be described thus: MEIS1 transcript levels by quantitative real-time PCR. As to conditions: for IC50: read-out: decrease of MEIS1 transcript, IC50. Background: Real-time PCR tracks product formation cycle by cycle.
Data set [2] concerns MV4-11 cells. The data set can be described thus: Proliferation assay, MV4-11 cells. The data set is classed as cell-based, human. As to conditions: 3 μM, several days.
The test system of a further data set is CD14. The data set can be described thus: Cell surface expression of differentiation marker CD14 by flow cytometry, MOLM-13 cells. As to conditions: 3 μM. On the technique in general: A flow cytometer gives signals particle by particle.
A further data set has as its system H3K79me2 in MV4-11 cells. The data set is described as follows: Cellular histone methylation immunoblot in MV4-11 cells.
A further data set relates to HOXA9. The data set is described as follows: HOXA9 transcript levels by quantitative real-time PCR. As to conditions: for IC50: read-out: decrease of HOXA9 transcript, IC50.
The test system of data set [3] is non-MLL rearranged human leukemia cell lines. The data set can be described thus: Proliferation IC50 in panel of non-MLL-rearranged leukemia cell lines. The data set is classed as cell-based. As to conditions: six non-MLL rearranged cell lines (FIG. 6), read-out: IC50 for inhibition of proliferation.
A further data set relates to TBP. The data set can be described thus: Housekeeping gene TBP transcript levels.
The subject of another data set is H3K79me2 in Jurkat cells. The data set is described as follows: Cellular H3K79me2 immunoblot in Jurkat cells. As to conditions: Jurkat (non-MLL-rearranged).
Data set [4] concerns MLL-rearranged human leukemia cell lines. The data set can be described thus: Proliferation IC50 in panel of MLL-rearranged leukemia cell lines. The data set is classed as cell-based. As to conditions: six MLL-rearranged cell lines (FIG. 6).
Data set [5] concerns MV4-11 cells. The data set can be described thus: Cell cycle and apoptosis by flow cytometry (DNA content, Annexin V), MV4-11 cells. As to conditions: 3 μM, after day four over the next six days.
A further data set has as its system Jurkat cells. The data set can be described thus: Proliferation assay, Jurkat cells. The data set is classed as cell-based, human. As to conditions: 3 μM, several days.
[6] abbreviates: MV4-11 cells, 3 μM, time course.

Each structure is given as a SMILES string. Structures can show the parent of a compound that is named as a salt. Where two headings read alike, the source gives them in different places.

Chain of DOT1L(1-416) (Q8TEK3 1-416): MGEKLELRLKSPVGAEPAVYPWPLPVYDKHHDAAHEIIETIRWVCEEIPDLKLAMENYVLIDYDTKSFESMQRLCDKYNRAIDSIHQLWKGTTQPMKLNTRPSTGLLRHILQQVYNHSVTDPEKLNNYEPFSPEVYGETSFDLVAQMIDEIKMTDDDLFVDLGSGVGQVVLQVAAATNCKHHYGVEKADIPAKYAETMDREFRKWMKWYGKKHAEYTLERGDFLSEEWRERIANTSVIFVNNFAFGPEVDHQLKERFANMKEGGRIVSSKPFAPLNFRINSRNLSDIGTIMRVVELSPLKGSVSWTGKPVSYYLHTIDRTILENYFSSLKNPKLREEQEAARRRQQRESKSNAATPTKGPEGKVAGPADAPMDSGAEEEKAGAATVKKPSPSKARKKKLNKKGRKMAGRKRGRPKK

Compound `CC(C)(C)c1ccc(NC(=O)NCCCNC[C@H]2O[C@@H](n3ccc4c(N)ncnc43)[C@H](O)[C@@H]2O)cc1` [Compound 20] had an IC50 at DOT1L(1-416) of less than 1000 nM.

With `CC(C)N(CCCCc1nc2cc(C(C)(C)C)ccc2[nH]1)C[C@H]1O[C@@H](n2ccc3c(N)ncnc32)[C@H](O)[C@@H]1O` [Compound 18, (2R,3R,4S,5R)-2-(4-amino-7H-pyrrolo[2,3-d]pyrimidin-7-yl)-5-(((4-(5-(tert-butyl)-1H-benzo[d]imidazol-2-yl)butyl)(isopropyl)amino)methyl)tetrahydrofuran-3,4-diol], the IC50 against DOT1L(1-416) was less than 10 nM.

Turning to `CC(=O)N(CCCNC(=O)Nc1ccc(C(C)(C)C)cc1)C[C@H]1O[C@@H](n2ccc3c(N)ncnc32)[C@H](O)[C@@H]1O` [Compound 21], the IC50 at DOT1L(1-416) is less than 1000 nM.

For the compound `CN(CCCNC(=O)Nc1ccc(C(C)(C)C)cc1)CC1O[C@@H](n2ccc3c(N)ncnc32)[C@H](O)[C@@H]1O` (stereo partly shown) [Compound 9, hydrochloride], the IC50 in the data set with MOLM-13 cells (MOLM-13 cells, read-out: Proliferation IC50 MOLM-13 cells) was 17300 nM; in [1] (MOLM-13 cells, read-out: H3K79 IC50 MOLM-13 cells), 77 nM.

On to `CC(C)N(CCCNC(=O)Nc1ccc(C(C)(C)C)cc1)C[C@H]1O[C@@H](n2ccc3c(N)ncnc32)[C@H](O)[C@@H]1O` [Compound 16, 1-(3-((((2R,3S,4R,5R)-5-(4-amino-7H-pyrrolo[2,3-d]pyrimidin-7-yl)-3,4-dihydroxytetrahydrofuran-2-yl)methyl)(isopropyl)amino)propyl)-3-(4-(tert-butyl)phenyl)urea], for which the “mode of binding to the enzyme (steady state kinetic analysis)” value on DOT1L(1-416) (versus SAM) is reported as “binds to the enzyme competitively with SAM”. The “estimated half-life for MEIS1 inhibition” value with MEIS1 (3 μM, mRNA over time) is 79.2 h. Also, the IC50 with MEIS1 (MOLM-13 cells) was approximately 700 nM; in the data set with MEIS1 (MV4-11 cells), approximately 700 nM; in the data set with HOXA9 (MOLM-13 cells), approximately 700 nM; with HOXA9 (MV4-11 cells), approximately 700 nM; in [3], more than 10000 nM. Moreover, the “number of viable cells” value is on record as “dramatically reduced” in the data set on MV4-11 cells [2] and “dramatically reduced” with MOLM-13 cells (MOLM-13 cells, 3 μM, several days). The “expression of CD14” value with CD14 is recorded as “induced following 12 days”. Further, the “global H3K79me2 levels” value is recorded as “concentration dependent reduction” in the data set on H3K79me2 in MV4-11 cells (MV4-11 (MLL-AF4), immunoblot); “concentration dependent reduction” with H3K79me2 in Jurkat cells; “concentration dependent reduction” in [1] (MOLM-13 (MLL-AF9), immunoblot). For the same compound, the “methyl marks affected (panel of methyl-lysine and methyl-arginine specific antibodies)” value in the data set with H3K79me2 in MV4-11 cells (MV4-11 cells) was “only methyl marks affected by compound 16 treatment were H3K79me1 and H3K79me2”. The “H3K79me2 levels within one day of treatment” value in the data set with H3K79me2 in MV4-11 cells (setting [6]) is “modest reduction”. In addition, in the data set with H3K79me2 in MV4-11 cells (setting [6]), the “time to full depletion of H3K79me2” value is listed as “four to five”. For the same compound, in the data set on HOXA9 (3 μM, mRNA over time), the “estimated half-life for HOXA9 inhibition” value was 55.2 h. Moreover, the “transcript levels of the housekeeping gene TBP” value in the data set on TBP was “unaffected”. Further, in data set [4], the “IC50 for inhibition of proliferation” value was “nanomolar to low micromolar range”. Besides, the “cell cycle and apoptosis” value in the data set with MV4-11 cells [5] was “increase in sub-G1 and Annexin-positive cells”. For the same compound, the growth of cells entry with Jurkat cells is “unaffected”.

Take `CC(C)N(CCCNC(=O)Nc1ccc(C(C)(C)C)cc1)C[C@H]1O[C@@H](n2ccc3c(N)ncnc32)[C@H](O)[C@@H]1O` [Compound 17, 1-(3-((((2R,3S,4R,5R)-5-(4-amino-7H-pyrrolo[2,3-d]pyrimidin-7-yl)-3,4-dihydroxytetrahydrofuran-2-yl)methyl)(isopropyl)amino)propyl)-3-(4-(tert-butyl)phenyl)urea hydrochloride]: the IC50 in the data set with MOLM-13 cells (Homo sapiens, MOLM-13, read-out: Proliferation IC50 MOLM-13 cells) worked out at 3200 nM; in data set [1] (Homo sapiens, MOLM-13, read-out: H3K79 IC50 MOLM-13 cells), 59 nM.
